Results taken from patent publication US10894255B2, “Leukocyte and microparticles fractionation using microfluidics” (Nanyang Technological University, priority 2015, dated 2021).

Assays:
Type in all cases: cell-based, human
[1] = system: DFF-purified neutrophils rolling on E-selectin; experiment: Microfluidic neutrophil rolling assay on E-selectin-coated microchannel; conditions: for Neutrophil rolling speed on E-selectin: DFF-sorted neutrophils treated with glucose 30 mM, TNF-α 10 ng/mL or PMA 1 μM, shear 2 dynecm^−2, compared with healthy neutrophils, P<0.005
From the text: In another aspect, the present invention also relates to a microfluidic flow channel, wherein its inner wall is coated with E-selectin. Such channel may have a length of at least 0.1 cm. Preferably, the channel has a length of 0.5-2 cm. The width may be at least 200 μm, preferably between 350-500 μm. The channel height may be at least 40 μm, preferably between 45-75 μm and more preferably the height is 60 μm. An example to determine the rolling speed by using an E-selectin coated channel is given below. Briefly, a straight microchannel (1 cm length by 400 μm width by 60 μm height) can be coated with E-selectin (50 μg/mL, Peprotech) for 1 h at 4° C. and blocked with 0.5% BSA in PBS for 30 min at room temperature. After blocking, the channel can be connected to a syringe loaded with 0.1% BSA in PBS to prime and wash away excess E-selectin in the channel. For rolling assay, CaCl2 (20 μM, Sigma-Aldrich) can be added to the DFF-purified neutrophils to facilitate the calcium-dependent interactions of neutrophil binding and rolling on E-selectin. ˜10-20 μL of DFF-purified neutrophils (˜10^6 cells/mL) can be loaded at the inlet reservoir and the syringe can be set to withdraw at 2.6 μL/min (˜2 dynecm^−2) to initiate neutrophil rolling. Phase contrast image can be captured for 30 s at the centre of the microchannel every 0.5 s interval (total of 61 frames) at 20× magnification using MetaMorph software (Molecular Devices). […] The neutrophils can then be washed at 1000×g for 4 min and resuspended to a concentration of ˜10^6 cells/mL with 20 μM CaCl2 for rolling assay.
To study neutrophil rolling phenotype on E-selectin, a straight microchannel (1 cm (l)×400 μm (w)×60 μm (h)) with recombinant human E-selectin (50 μg/mL) was coated to simulate flow conditions in post capillary venules (˜1-10 dynecm^−2). DFF-sorted neutrophils were pumped into the channel at physiological shear conditions (2 dynecm^−2) and timelapse imaging was used to capture neutrophil rolling. A MATLAB tracking algorithm was developed to track neutrophil rolling trajectories and speed measurement for high throughput single cell analysis. […] These differences in rolling phenotypes were further investigated by measuring neutrophil PSGL-1 expression, which is known to mediate leukocyte rolling on E-selectin, as well as CD11b, a Mac-1 integrin expressed on leukocytes that supports adhesion to E-selectin.
After having established that neutrophils from T2DM patients rolled faster on E-selectin as compared to healthy subjects, it was determined if these functional differences can be associated to clinical conditions by analyzing rolling speed frequencies in T2DM patients that are higher than the average rolling speed of healthy subjects (≥5 μm/sec). […]

[2] = system: CD11b expression on neutrophils; experiment: Flow cytometric analysis of CD11b expression on healthy and treated neutrophils; conditions: glucose 30 mM, TNF-α 10 ng/mL or PMA 1 μM treated vs healthy neutrophils; flow cytometry
Experimental: (§1) (A) Image overlay (60× magnification) from captured cell rolling videos highlight distinct differences in rolling trajectories between healthy and TNF-α-treated neutrophils. (B) Cumulative frequency curves of neutrophil rolling speed for healthy, glucose-treated (30 mM), TNF-α-treated (10 ng/mL) and PMA-treated (1 μM) neutrophils. […] Flow cytometric analysis of (C) PSGL-1 and (D) CD11b expression on healthy and treated neutrophils. Cells were incubated with mouse APC anti-human PSGL-1 IgG2a/mouse APC IgG2a isotype and FITC mouse anti-human CD11b (activated) IgG1/FITC mouse IgG1 isotype.
(§2) To study neutrophil rolling phenotype on E-selectin, a straight microchannel (1 cm (l)×400 μm (w)×60 μm (h)) with recombinant human E-selectin (50 μg/mL) was coated to simulate flow conditions in post capillary venules (˜1-10 dynecm^−2). DFF-sorted neutrophils were pumped into the channel at physiological shear conditions (2 dynecm^−2) and timelapse imaging was used to capture neutrophil rolling. A MATLAB tracking algorithm was developed to track neutrophil rolling trajectories and speed measurement for high throughput single cell analysis. […]

[3] = system: PSGL-1 expression on neutrophils; experiment: Flow cytometric analysis of PSGL-1 expression on healthy and treated neutrophils; conditions: glucose 30 mM, TNF-α 10 ng/mL or PMA 1 μM treated vs healthy neutrophils; flow cytometry
Experimental: as §1, §2

Compound	Average rolling speed of drug-treated neutrophils ([1]; DFF-purified neutrophils of healthy subjects incubated with metformin 1 mM or pravastatin 20 μM for 1 h, vs untreated controls, all paired observations, P<0.05)	Neutrophil CD11b level [2]	Neutrophil rolling speed on E-selectin [1]	PSGL-1 expression on neutrophils [3]	Neutrophil rolling trajectories on E-selectin ([1]; TNF-α-activated neutrophils vs healthy neutrophils (steady rolling in a straight path))
CN(C)C(=N)N=C(N)N [metformin]	higher than controls				
CCCCCCCCCCCCCC(=O)O[C@@H]1[C@@H](C)[C@@]2(O)[C@@H](C=C(CO)C[C@]3(O)C(=O)C(C)=C[C@@H]23)[C@@H]2C(C)(C)[C@]12OC(C)=O [PMA]		higher increase	did not roll, but instead adhered firmly on E-selectin	downregulation was more significant	
tumor necrosis factor alpha [TNF-α]			higher than healthy neutrophils	decreased	discontinuous with “flipping” motions
